Test results taken from patent US8044198B2, “Sirtuin modulating compounds” (Sirtris Pharmaceuticals, Inc., priority 2005, dated 2011).

Biological target: T1, SIRT1 (Homo sapiens, UniProt Q96EB6)
T1 sequence (Q96EB6 1-747): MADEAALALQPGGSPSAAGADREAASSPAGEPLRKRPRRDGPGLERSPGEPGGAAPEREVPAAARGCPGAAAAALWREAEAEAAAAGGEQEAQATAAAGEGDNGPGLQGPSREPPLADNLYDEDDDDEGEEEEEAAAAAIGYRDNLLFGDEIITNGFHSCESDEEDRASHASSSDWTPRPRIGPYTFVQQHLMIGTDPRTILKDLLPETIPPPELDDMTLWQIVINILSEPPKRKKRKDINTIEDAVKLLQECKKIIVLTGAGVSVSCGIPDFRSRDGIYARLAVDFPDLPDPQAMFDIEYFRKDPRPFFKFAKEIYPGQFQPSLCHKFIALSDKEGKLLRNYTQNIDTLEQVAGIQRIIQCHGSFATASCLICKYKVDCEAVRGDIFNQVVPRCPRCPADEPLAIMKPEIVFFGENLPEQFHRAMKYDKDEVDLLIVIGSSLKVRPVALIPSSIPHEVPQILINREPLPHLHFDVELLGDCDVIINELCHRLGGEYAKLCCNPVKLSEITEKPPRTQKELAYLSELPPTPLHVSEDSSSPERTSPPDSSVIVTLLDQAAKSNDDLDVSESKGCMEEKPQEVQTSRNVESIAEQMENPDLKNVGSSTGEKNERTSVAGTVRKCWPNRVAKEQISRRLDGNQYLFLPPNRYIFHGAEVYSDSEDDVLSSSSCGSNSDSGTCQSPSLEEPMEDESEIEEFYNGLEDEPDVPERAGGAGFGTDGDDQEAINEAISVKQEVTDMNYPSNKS
Assay: SIRT1 mass spectrometry (MS) based deacetylation assay; as to FOLD ACT. MS: test concentration or dose not given here
Format: biochemical
Details: for EC50: SIRT1 activation, mass spectrometry assay, read-out: ED50 MS ASSAY; for FOLD ACT. MS: fold activation of SIRT1, mass spectrometry assay

SMILES: O=C(Nc1cccc(-c2nc3ccncc3s2)c1)c1ccc2ccccc2n1 [Compound 307]
- EC50: < 5 µM
- FOLD ACT. MS: A (A (Fold activation >250%))

SMILES: CN(C)c1cccc(C(=O)Nc2cccc(-c3nc4cnccc4o3)c2)c1 [Compound 311]
- EC50: 5 to 50 µM
- FOLD ACT. MS: B (B (Fold Activation <250%))

SMILES: COc1cc(C(=O)Nc2ccccc2-c2nc3ccccc3n2C)cc(OC)c1OC [Compound 313]
- EC50: 5 to 50 µM
- FOLD ACT. MS: B (B (Fold Activation <250%))

SMILES: COc1ccc(C(=O)Nc2ccccc2-c2nc3ccccc3n2C)cc1OC [Compound 314]
- EC50: 5 to 50 µM
- FOLD ACT. MS: B (B (Fold Activation <250%))

SMILES: COc1ccc(C(=O)Nc2ccccc2-c2nc3cnccc3s2)c(OC)c1 [Compound 317]
- EC50: < 5 µM
- FOLD ACT. MS: B (B (Fold Activation <250%))

SMILES: COc1cc(OC)cc(C(=O)Nc2ccccc2-c2nc3cnccc3s2)c1 [Compound 318]
- EC50: 5 to 50 µM
- FOLD ACT. MS: B (B (Fold Activation <250%))

SMILES: COc1cc(C(=O)Nc2ccccc2-c2nc3cnccc3s2)cc(OC)c1OC [Compound 319]
- EC50: < 5 µM
- FOLD ACT. MS: B (B (Fold Activation <250%))

SMILES: CN(C)c1ccc(C(=O)Nc2ccccc2-c2nc3cnccc3s2)cc1 [Compound 320]
- EC50: < 5 µM
- FOLD ACT. MS: B (B (Fold Activation <250%))

SMILES: CN(C)c1cccc(C(=O)Nc2ccccc2-c2nc3cnccc3s2)c1 [Compound 321]
- EC50: < 5 µM
- FOLD ACT. MS: B (B (Fold Activation <250%))

SMILES: COc1cc(OC)cc(C(=O)Nc2ccc(-c3nc4cnccc4s3)cc2)c1 [Compound 323]
- EC50: 5 to 50 µM
- FOLD ACT. MS: B (B (Fold Activation <250%))

SMILES: COc1ccc(C(=O)Nc2ccccc2-c2cn3c(CN4CCNCC4)csc3n2)c(OC)c1 [Compound 326]
- EC50: 5 to 50 µM
- FOLD ACT. MS: B (B (Fold Activation <250%))

SMILES: CN(C)c1cccc(C(=O)Nc2ccccc2-c2cn3c(CN4CCNCC4)csc3n2)c1 [Compound 327]
- EC50: 5 to 50 µM
- FOLD ACT. MS: A (A (Fold activation >250%))

SMILES: O=C(Nc1ccccc1-c1cn2c(CN3CCNCC3)csc2n1)c1ccccc1 [Compound 328]
- EC50: 51 to 100 µM
- FOLD ACT. MS: A (A (Fold activation >250%))

SMILES: O=C(Nc1ccccc1-c1cn2c(CN3CCNCC3)csc2n1)c1ccc2c(c1)OCO2 [Compound 329]
- EC50: 5 to 50 µM
- FOLD ACT. MS: A (A (Fold activation >250%))

SMILES: N#Cc1cccc(C(=O)Nc2ccccc2-c2cn3c(CN4CCNCC4)csc3n2)c1 [Compound 330]
- EC50: 5 to 50 µM
- FOLD ACT. MS: A (A (Fold activation >250%))

SMILES: COc1ccc(C(=O)Nc2cccc(-c3cccnc3)c2)c(OC)c1 [Compound 331]
- EC50: 5 to 50 µM
- FOLD ACT. MS: B (B (Fold Activation <250%))

SMILES: COc1ccc(C(=O)Nc2cccc(-c3cccnc3)c2)cc1OC [Compound 332]
- EC50: 5 to 50 µM
- FOLD ACT. MS: B (B (Fold Activation <250%))

SMILES: COc1cc(C(=O)Nc2cccc(-c3cccnc3)c2)cc(OC)c1OC [Compound 333]
- EC50: 5 to 50 µM
- FOLD ACT. MS: B (B (Fold Activation <250%))

SMILES: COc1ccc(C(=O)Nc2ccccc2-c2cccs2)c(OC)c1 [Compound 334]
- EC50: 5 to 50 µM
- FOLD ACT. MS: B (B (Fold Activation <250%))

SMILES: COc1ccc(C(=O)Nc2ccccc2-c2cccs2)cc1OC [Compound 335]
- EC50: 5 to 50 µM
- FOLD ACT. MS: B (B (Fold Activation <250%))

SMILES: O=C(Nc1ccccc1-c1cn2c(CN3CCNCC3)csc2n1)c1ccc2occc2c1 [Compound 338]
- EC50: 5 to 50 µM
- FOLD ACT. MS: A (A (Fold activation >250%))

SMILES: COc1cc(C(=O)Nc2ccc(-c3nc4ccncc4o3)cc2)cc(OC)c1OC [Compound 341]
- EC50: < 5 µM
- FOLD ACT. MS: B (B (Fold Activation <250%))

SMILES: COc1ccc(C(=O)Nc2cccc(-c3nc4cnccc4o3)c2)c(OC)c1OC [Compound 343]
- EC50: 5 to 50 µM
- FOLD ACT. MS: B (B (Fold Activation <250%))

SMILES: COc1ccc(C(=O)Nc2cccc(-c3nc4cnccc4o3)c2)cc1OC [Compound 344]
- EC50: < 5 µM
- FOLD ACT. MS: B (B (Fold Activation <250%))

SMILES: COc1cc(C(=O)Nc2ccc(-c3nc4cnccc4o3)cc2)cc(OC)c1OC [Compound 347]
- EC50: < 5 µM
- FOLD ACT. MS: B (B (Fold Activation <250%))

SMILES: COc1ccc(C(=O)Nc2ccccc2-c2nc3ccccn3c2CN(C)C)cc1OC [Compound 350]
- EC50: 51 to 100 µM
- FOLD ACT. MS: B (B (Fold Activation <250%))

SMILES: COc1cc(C(=O)Nc2ccccc2-c2nc3ccccn3c2CN(C)C)cc(OC)c1OC [Compound 351]
- EC50: 5 to 50 µM
- FOLD ACT. MS: B (B (Fold Activation <250%))

SMILES: COc1cc(C(=O)Nc2ccccc2-c2nc3ccccn3c2CN2CCNCC2)cc(OC)c1OC [Compound 362]
- EC50: 51 to 100 µM
- FOLD ACT. MS: B (B (Fold Activation <250%))

SMILES: COc1ccc(C(=O)Nc2ccccc2-c2nc3ccccn3c2CN2CCNCC2)cc1OC [Compound 364]
- EC50: > 150 µM
- FOLD ACT. MS: A (A (Fold activation >250%))

SMILES: Cc1nn(-c2ccccc2)nc1C(=O)Nc1ccccc1-c1nc2ccncc2s1 [Compound 390]
- EC50: 5 to 50 µM
- FOLD ACT. MS: B (B (Fold Activation <250%))

SMILES: O=C(Nc1ccccc1-c1nc2ccncc2s1)c1cnccn1 [Compound 391]
- EC50: 5 to 50 µM
- FOLD ACT. MS: B (B (Fold Activation <250%))

SMILES: O=C(Nc1ccccc1-c1nc2ccncc2s1)c1ccc(Oc2ccccc2)nc1 [Compound 392]
- EC50: 5 to 50 µM
- FOLD ACT. MS: B (B (Fold Activation <250%))

SMILES: CC(CC(=O)Nc1cccc(-c2nc3ccncc3s2)c1)Oc1ccccc1 (stereo not shown) [Compound 396]
- EC50: 5 to 50 µM
- FOLD ACT. MS: B (B (Fold Activation <250%))

SMILES: CN(C)c1cccc2c(S(=O)(=O)Nc3cccc(-c4nc5ccncc5s4)c3)cccc12 [Compound 398]
- EC50: 5 to 50 µM
- FOLD ACT. MS: B (B (Fold Activation <250%))

SMILES: O=c1[nH]c2ccc(S(=O)(=O)Nc3cccc(-c4nc5ccncc5s4)c3)cc2o1 [Compound 399]
- EC50: 5 to 50 µM
- FOLD ACT. MS: B (B (Fold Activation <250%))

SMILES: COc1ccc(C(=O)Nc2cccc(-c3nc4cnccc4s3)c2)c(OC)c1OC [Compound 401]
- EC50: 5 to 50 µM
- FOLD ACT. MS: B (B (Fold Activation <250%))

SMILES: CN(C)c1cccc(C(=O)Nc2cccc(-c3nc4cnccc4s3)c2)c1 [Compound 402]
- EC50: < 5 µM
- FOLD ACT. MS: B (B (Fold Activation <250%))

SMILES: CN(C)c1ccc(C(=O)Nc2cccc(-c3nc4cnccc4s3)c2)cc1 [Compound 403]
- EC50: < 5 µM
- FOLD ACT. MS: B (B (Fold Activation <250%))

SMILES: COc1cc(OC)cc(C(=O)Nc2ccccc2-c2nc3cnccc3o2)c1 [Compound 404]
- EC50: < 5 µM
- FOLD ACT. MS: B (B (Fold Activation <250%))

SMILES: COc1cc(C(=O)Nc2ccccc2-c2nc3cnccc3o2)cc(OC)c1OC [Compound 405]
- EC50: < 5 µM
- FOLD ACT. MS: B (B (Fold Activation <250%))

SMILES: CN(C)c1cccc(C(=O)Nc2ccccc2-c2nc3cnccc3o2)c1 [Compound 406]
- EC50: < 5 µM
- FOLD ACT. MS: B (B (Fold Activation <250%))

SMILES: CN(C)c1ccc(C(=O)Nc2ccccc2-c2nc3cnccc3o2)cc1 [Compound 407]
- EC50: < 5 µM
- FOLD ACT. MS: B (B (Fold Activation <250%))

SMILES: CN(C)c1cccc(C(=O)Nc2ccc(-c3nc4ccncc4o3)cc2)c1 [Compound 408]
- EC50: 51 to 100 µM
- FOLD ACT. MS: B (B (Fold Activation <250%))

SMILES: COc1ccc(C(=O)Nc2ccccc2-c2nc3cnccc3s2)c(OC)c1OC [Compound 411]
- EC50: 5 to 50 µM
- FOLD ACT. MS: B (B (Fold Activation <250%))
